Source: patent US20260184663A1, “INDENE COMPOUNDS, PHARMACEUTICAL COMPOSITIONS THEREOF, AND THEIR THERAPEUTIC APPLICATIONS” (NucMito Pharmaceuticals co. Ltd., priority 2022, published 2026)

Tests used:
Type in all cases: cell-based
SW480 (colon cancer) = test: Antiproliferative activity (CCK-8 cell viability), SW480; conditions: Homo sapiens, 72 h, read-out: Antiproliferative activity in cancerous cells, SW480 (inhibition of cell growth); for inhibition at 3.3 µM: Compound concentration: 3.3 μM; for inhibition at 10 µM: Compound concentration: 10 μM; for inhibition at 30 µM: Compound concentration: 30 μM
Outline: (§1)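 Cells were seeded at 2,000-5,000/well (HeLa in MEM, HepG2 and SW480 in DMEM, A549 in F-12K, all with 10% FBS) and treated with compound at 3.3, 10 or 30 μM for 72 h at 37° C. CCK-8 was added for 4 h, absorbance was read at 450 nm, and viability was expressed relative to DMSO-treated wells.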

HeLa (cervical cancer) = test: Antiproliferative activity (CCK-8 cell viability), HeLa; conditions: Homo sapiens, 72 h, read-out: Antiproliferative activity in cancerous cells, HELA (inhibition of cell growth); for inhibition at 3.3 µM: Compound concentration: 3.3 μM; for inhibition at 10 µM: Compound concentration: 10 μM; for inhibition at 30 µM: Compound concentration: 30 μM
Outline: as §1

[1] = test system: B16F10 (malignant melanoma); test: Antiproliferative activity (CCK-8 cell viability), B16F10; conditions: Mus musculus, 72 h, read-out: Antiproliferative activity in cancerous cells, B16F10 (inhibition of cell growth); for inhibition at 3.3 µM: B16-F10, Compound concentration: 3.3 μM; for inhibition at 10 µM: B16-F10, Compound concentration: 10 μM; for inhibition at 30 µM: B16-F10, Compound concentration: 30 μM
Outline: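 Attached B16F10 cells in 96-well plates were incubated with compound at 37° C for 72 h, followed by 10 μL CCK-8 reagent per well and a further 4 h incubation. A multi-well plate reader measured absorbance at 450 nm. Percent viability across replicates was calculated against DMSO vehicle-treated cells.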

HepG2 (liver cancer) = test: Antiproliferative activity (CCK-8 cell viability), HepG2; conditions: Homo sapiens, 72 h, read-out: Antiproliferative activity in cancerous cells, HepG2 (inhibition of cell growth); for inhibition at 3.3 µM: Compound concentration: 3.3 μM; for inhibition at 10 µM: Compound concentration: 10 μM; for inhibition at 30 µM: Compound concentration: 30 μM
Outline: as §1

[2] = test system: A549 (lung adenocarcinoma); test: Antiproliferative activity (CCK-8 cell viability), A549; conditions: Homo sapiens, 72 h, read-out: Antiproliferative activity in cancerous cells, A549 (inhibition of cell growth); for inhibition at 3.3 µM: Compound concentration: 3.3 μM; for inhibition at 10 µM: Compound concentration: 10 μM; for inhibition at 30 µM: Compound concentration: 30 μM
Outline: as §1

[3] = test system: MDA-MB-231 (breast cancer); test: Antiproliferative activity (CCK-8 cell viability), MDA-MB-231; conditions: Homo sapiens, 72 h, read-out: Antiproliferative activity in cancerous cells, MDA-MB-231 (inhibition of cell growth); for inhibition at 3.3 µM: Compound concentration: 3.3 μM; for inhibition at 10 µM: Compound concentration: 10 μM; for inhibition at 30 µM: Compound concentration: 30 μM
Outline: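 In this CCK-8 viability assay, MDA-MB-231 cells maintained in Dulbecco's modified Eagle's medium containing 10% fetal bovine serum were placed in 96-well plates (2,000-5,000 cells/well) and treated with compound for 72 h at 37° C. A 4 h incubation with 10 μL CCK-8 followed, plates were read at 450 nm, and viability was expressed against DMSO vehicle wells across replicates.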

[4] = test system: A431 (epidermoid carcinoma); test: Antiproliferative activity (CCK-8 cell viability), A431; conditions: Homo sapiens, 72 h, read-out: Antiproliferative activity in cancerous cells, A431 (inhibition of cell growth); for inhibition at 3.3 µM: A-431, Compound concentration: 3.3 μM; for inhibition at 10 µM: A-431, Compound concentration: 10 μM; for inhibition at 30 µM: A-431, Compound concentration: 30 μM
Outline: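 Cell viability of compound-treated A431 cells was measured with a Cell Counting Kit-8. Each well received 10 μL of CCK-8 after 72 h of compound exposure, followed by 4 h incubation at 37° C. and a 450 nm plate-reader measurement. Percent viability was calculated relative to DMSO controls across replicates.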

| SMILES | inhibition at 3.3 µM (SW480 (colon cancer)) [%] | inhibition at 10 µM (SW480 (colon cancer)) [%] | inhibition at 30 µM (SW480 (colon cancer)) [%] | inhibition at 3.3 µM (HeLa (cervical cancer)) [%] | inhibition at 10 µM (HeLa (cervical cancer)) [%] | inhibition at 30 µM (HeLa (cervical cancer)) [%] | inhibition at 3.3 µM [1] [%] | inhibition at 10 µM [1] [%] | inhibition at 30 µM [1] [%] | inhibition at 3.3 µM (HepG2 (liver cancer)) [%] | inhibition at 10 µM (HepG2 (liver cancer)) [%] | inhibition at 30 µM (HepG2 (liver cancer)) [%] | inhibition at 3.3 µM [2] [%] | inhibition at 10 µM [2] [%] | inhibition at 30 µM [2] [%] | inhibition at 3.3 µM [3] [%] | inhibition at 10 µM [3] [%] | inhibition at 30 µM [3] [%] | inhibition at 3.3 µM [4] [%] | inhibition at 10 µM [4] [%] | other results |
| --- | --- | --- | --- | --- | --- | --- | --- | --- | --- | --- | --- | --- | --- | --- | --- | --- | --- | --- | --- | --- | --- |
| CC1=C(CC(=O)O)c2c(F)ccc(F)c2/C1=C\c1ccc(C(C)C)cc1 [D4, (Z)-2-(4,7-Difluoro-1-(4-isopropylbenzylidene)-2-methyl-1H-inden-3-yl)acetic acid] | < 30 | < 30 | ≥ 50 | ≥ 50 | ≥ 50 | ≥ 50 | 30 to 50 | ≥ 50 | ≥ 50 | < 30 | < 30 | ≥ 50 | < 30 | 30 to 50 | ≥ 50 | 30 to 50 | 30 to 50 | ≥ 50 | < 30 | < 30 | inhibition at 30 µM [4]: ≥ 50% |
| CC1=C(CC(=O)O)c2cc(Br)ccc2/C1=C/c1ccc(Oc2ccc(F)cc2)cc1 [E32, (E)-2-(5-Bromo-1-(4-(4-fluorophenoxy)benzylidene)-2-methyl-1H-inden-3-yl)acetic acid] | 30 to 50 | ≥ 50 | ≥ 50 | ≥ 50 | ≥ 50 | ≥ 50 | ≥ 50 | ≥ 50 | ≥ 50 | < 30 | ≥ 50 | ≥ 50 | 30 to 50 | ≥ 50 | ≥ 50 | ≥ 50 | ≥ 50 | ≥ 50 | ≥ 50 | ≥ 50 | inhibition at 30 µM [4]: ≥ 50% |
| CCc1ccc(COCc2ccc(/C=C3/C(C)=C(CC(=O)O)c4cc(F)ccc43)cc2)cc1 [B151, (Z)-2-(1-(4-(((4-Ethylbenzyl)oxy)methyl)benzylidene)-5-fluoro-2-methyl-1H-inden-3-yl)acetic acid] | 30 to 50 | ≥ 50 |  | < 30 | ≥ 50 |  | < 30 | < 30 |  | < 30 | ≥ 50 |  | 30 to 50 | ≥ 50 |  | 30 to 50 | ≥ 50 |  | ≥ 50 | ≥ 50 |  |
| CC1=C(CC(=O)O)c2cc(F)ccc2/C1=C\c1ccc(CCCc2ccc(F)cc2)cc1 [B117, (Z)-2-(5-Fluoro-1-(4-(3-(4-fluorophenyl)propyl)benzylidene)-2-methyl-1H-inden-3-yl)acetic acid] | ≥ 50 | ≥ 50 |  | < 30 | ≥ 50 |  | < 30 | ≥ 50 |  | ≥ 50 | ≥ 50 |  | 30 to 50 | ≥ 50 |  | < 30 | < 30 |  | 30 to 50 | ≥ 50 |  |
| CCc1ccc2c(c1)C(CC(=O)O)=C(C)/C2=C/c1ccc(CCc2ccccc2)cc1 [B157, (Z)-2-(5-Ethyl-2-methyl-1-(4-phenethylbenzylidene)-1H-inden-3-yl)acetic acid] | ≥ 50 | ≥ 50 |  | < 30 | ≥ 50 |  | < 30 | ≥ 50 |  | < 30 | ≥ 50 |  | 30 to 50 | ≥ 50 |  | < 30 | < 30 |  | 30 to 50 | ≥ 50 |  |
| CC1=C(CC(=O)O)c2cc(F)ccc2/C1=C\c1ccc(COCc2ccc(F)c(Cl)c2)cc1 [B106, (Z)-2-(1-(4-(((3-Chloro-4-fluorobenzyl)oxy)methyl)benzylidene)-5-fluoro-2-methyl-1H-inden-3-yl)acetic acid] | ≥ 50 | ≥ 50 |  | ≥ 50 | ≥ 50 |  | < 30 | ≥ 50 |  | < 30 | ≥ 50 |  | 30 to 50 | ≥ 50 |  | ≥ 50 | ≥ 50 |  | 30 to 50 | ≥ 50 |  |
| COc1ccc(CCCc2ccc(/C=C3/C(C)=C(CC(=O)O)c4cc(Cl)ccc43)cc2)cc1 [B127, (Z)-2-(5-Chloro-1-(4-(3-(4-methoxyphenyl)propyl)benzylidene)-2-methyl-1H-inden-3-yl)acetic acid] | < 30 | ≥ 50 |  | ≥ 50 | ≥ 50 |  | ≥ 50 | ≥ 50 |  | ≥ 50 | ≥ 50 |  | ≥ 50 | ≥ 50 |  | ≥ 50 | ≥ 50 |  | ≥ 50 | ≥ 50 |  |
| CC1=C(CC(=O)O)c2cc(F)ccc2/C1=C/c1ccc(-c2ccc(Cl)cc2)cc1 [E22, (E)-2-(1-((4′-Chloro-[1,1′-biphenyl]-4-yl)methylene)-5-fluoro-2-methyl-1H-inden-3-yl)acetic acid] | 30 to 50 | ≥ 50 | ≥ 50 | 30 to 50 | ≥ 50 | ≥ 50 | ≥ 50 | ≥ 50 | ≥ 50 | ≥ 50 | ≥ 50 | ≥ 50 | 30 to 50 | ≥ 50 | ≥ 50 | ≥ 50 | ≥ 50 | ≥ 50 | 30 to 50 | ≥ 50 | inhibition at 30 µM [4]: ≥ 50% |
